Here are results for five molecules from US9351955B2, “Compounds and pharmaceutical compositions thereof for the treatment of cystic fibrosis” (Galapagos NV, priority 2013, dated 2016).

Where “and” joins values, the source holds several entries; their conditions need not be identical. Equal values may be shown once. Read-outs that look alike come from different tables or passages of the source. A value given as a limit tells only on which side of the number the result lay.

Assay type in all cases: cell-based
Test [1] has as its target T1, CFTR ΔF508 mutant (Homo sapiens, UniProt P13569, DEL508-508).
T1 construct: expressed in transfected cells; host or cells: CFBE41o- (adenoviral transduction)
Put plainly: YFP-halide influx assay for the CFTR-ΔF508 mutation (96 well, CFBE41o- cells). The following applies: read-out: EC50 measured by YFP-halide influx assay for the CFTR-ΔF508. The source says: 6.1. YFP-Halide Influx Assay for the CFTR-ΔF508 Mutation
The YFP halide influx assay measures the functionality of the cystic fibrosis Transmembrane Conductance regulator (CFTR) channels in the cystic fibrosis bronchial epithelium cell line CFBE41o-. The assay is used to evaluate the capacity of compounds to increase the open probability of existing CFTR channels in the membrane. It makes use of the observation that the yellow fluorescent protein (YFP) variant YFP H148Q, I152L has its fluorescence substantially quenched by halide ions like Cl^− and I^−. (Galietta et al., 2001; Nagai et al., 2002)
For this purpose, CFBE410-cells are seeded in 96 well plates (6000 CFBE cells/well). One day after seeding, the CFBE cells are transduced with adenoviral vectors that direct the expression of the CFTR ΔF508 mutant and of the YFP reporter. Cells are incubated at 27° C., 5% CO2 for 24 hours so as to allow for the proper folding and migration to the membrane of the CFTR channel or treated with a CFTR modulator during 24 h at 37° C.
The […] quenching of fluorescence is recorded immediately after injection of I^− for 7 seconds. The capacity of a compound to increase the channel opening is directly correlated with the decrease in fluorescence, and is expressed as (1-(fluorescence after 7 seconds (F)/fluorescence before injection (F0))) and an EC50 can be derived from a (1−F/F0) vs compound concentration plot.

The next test deals with T2, CFTR ΔF508 (Homo sapiens, UniProt P13569, DEL508-508).
T2 construct: host or cells: primary bronchial epithelial cells from CF patients homozygous for ΔF508, pre-treated with VX809
Kind of test: TECC assay, primary bronchial epithelial cells from CF patients homozygous for CFTR ΔF508. The following applies: for ΔIsc / Current increase: TECC assay; for Current increase: compound at 50 nM, difference between ΔIsc with compound and ΔIsc DMSO (baseline); for activity on the CFTR protein in TECC assay (ΔISC vs DMSO baseline): at 3 μM, or 50 nM, or 50/100/200 nM; for EC50: primary bronchial epithelial cells, CFTR ΔF508, several values in a cell = repeat determinations. As to the method:
7.2.1. Primary Bronchial Epithelial Cells Protocol
The TECC (Tranepithelial Clamp Circuit, EP-design) assay measures the functionality of the cystic fibrosis Transmembrane Conductance regulator (CFTR) by measuring the short circuit current (ISC) generated over the basolateral and apical membrane of lung epithelial cells. In TECC the transepithelial potential PD and transepithelial resistance (Rt) are measured in an open circuit and transformed to ISC using Ohm's law. 24 wells can be measured simultaneously allowing a higher throughput compared to Ussing chambers.
For this purpose, bronchial epithelial cells isolated from CF patients homozygous for the CFTR ΔF508 mutation (hAEC-CF, Epithelix) are plated on type IV collagen-coated Transwell supports (Costar). Human airway epithelia are generated by provision of an air-liquid interface for 21 days to form well-differentiated polarized cultures that resemble in vivo pseudo-stratified ciliated epithelium (Fulcher et al., 2005). In the case of the homozygous ΔF508 CFTR samples, the differentiated cells are treated with 3 μM VX809 (2626 South Loop West, Suite 225, Houston, Tex. 77054 USA, Cat n#51565) to allow sufficient expression of properly folded CFTR protein on the membrane (48 hours basolateral treatment and 24 hours apical treatment), prior to electrophysiological recordings. […] G551D/ΔF508, differentiated cells are used as such for the recordings.
Information on the compounds can be retrieved on the homozygous ΔF508 CFTR samples looking at increased CFTR activity when compounds are added in an acute mode or in a chronic mode. On G551D/ΔF508 CFTR heterozygous samples compounds are added in an acute mode to the differentiated cells.
For the acute mode, for electrophysiological recording, the human airway epithelia are mounted in the TECC heating plate for electrophysiological measurement and kept at 37° C. The epithelia are bathed in a NaCl-Ringer solution (120 mM NaCl, 25 mM NaHCO3, 1.2 mM CaCl2, 1.2 mM MgCl2, 0.8 mM KH2PO4, 0.8 mM K2HPO4, pH 7.4, 5 mM glucose) on both the basolateral and apical sides. Apical amiloride is used to inhibit the endogenous ENaC currents while forkolin is applied on both apical and basolateral side to stimulate CFTR. After forskolin triggering, compounds are added on both sides to test their potential for increasing CFTR gating. Measurements are done during a 20 minute timeframe with recordings every 2 minutes. The increase in ISC is used as a measure for the increased CFTR activity, EC50 values can be generated by measuring impact of different concentrations of compound on ISC on primary cells, for this purpose each transwell is treated with a different compound concentration. Inh-172, an inhibitor specific for CFTR, is used to test the specificity of the tested compounds.
For the chronic mode, the differentiated cells are treated with 3 μM VX809 (2626 South Loop West, Suite 225, Houston, Tex. 77054 USA, Cat n#51565) and potentiator compounds at different concentrations (48 hours basolateral treatment and 24 hours apical treatment), prior to electrophysiological recordings. For electrophysiological recording, the human airway epithelia are mounted in the TECC heating plate for electrophysiological measurement and kept at 37° C. […]

Another test concerns the target T3, CFTR G551D mutant (Homo sapiens, UniProt P13569, G551D).
T3 construct: expressed in transfected cells; host or cells: HEK293 (reverse transfection with plasmids)
Put plainly: YFP-halide influx assay for the CFTR-G551D mutation (HEK293 cells). The following applies: read-out: EC50 measured by YFP-halide influx assay for the CFTR-G551D. Summed up:
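HEK293 cells reverse-transfected with CFTR G551D and halide-sensitive YFP, expressed 24 h at 37 °C. Iodide-induced fluorescence quench recorded for 7 s after I^− injection; response as 1−F/F0, EC50 from concentration plot.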

For test [2], the target named is T1, CFTR ΔF508 mutant. Put plainly: YFP-halide influx assay for the CFTR-ΔF508 mutation (384 well, CFBE41o- cells, FDSS/μCell). The following applies: forskolin 10.67 μM, fluorescence after 36 seconds, read-out: EC50 measured by YFP-halide influx assay for the CFTR-ΔF508. Summed up: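 CFBE41o- cells were adenovirally transduced with ΔF508 CFTR and the YFP H148Q/I152L reporter. Cells were then held 24 h at 27 °C or treated 24 h at 37 °C with a CFTR modulator. Iodide-induced quench was recorded for 2 min, and EC50 was derived from 1−F/F0 at 36 s against compound concentration.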

Setting [3] is: comparative compounds, HEK293 cells.
Where [4] appears, read: compounds of the invention, 96 well, forskolin 10.67 μM.

T1 sequence (P13569 with tags, fused parts or gaps DEL508-508): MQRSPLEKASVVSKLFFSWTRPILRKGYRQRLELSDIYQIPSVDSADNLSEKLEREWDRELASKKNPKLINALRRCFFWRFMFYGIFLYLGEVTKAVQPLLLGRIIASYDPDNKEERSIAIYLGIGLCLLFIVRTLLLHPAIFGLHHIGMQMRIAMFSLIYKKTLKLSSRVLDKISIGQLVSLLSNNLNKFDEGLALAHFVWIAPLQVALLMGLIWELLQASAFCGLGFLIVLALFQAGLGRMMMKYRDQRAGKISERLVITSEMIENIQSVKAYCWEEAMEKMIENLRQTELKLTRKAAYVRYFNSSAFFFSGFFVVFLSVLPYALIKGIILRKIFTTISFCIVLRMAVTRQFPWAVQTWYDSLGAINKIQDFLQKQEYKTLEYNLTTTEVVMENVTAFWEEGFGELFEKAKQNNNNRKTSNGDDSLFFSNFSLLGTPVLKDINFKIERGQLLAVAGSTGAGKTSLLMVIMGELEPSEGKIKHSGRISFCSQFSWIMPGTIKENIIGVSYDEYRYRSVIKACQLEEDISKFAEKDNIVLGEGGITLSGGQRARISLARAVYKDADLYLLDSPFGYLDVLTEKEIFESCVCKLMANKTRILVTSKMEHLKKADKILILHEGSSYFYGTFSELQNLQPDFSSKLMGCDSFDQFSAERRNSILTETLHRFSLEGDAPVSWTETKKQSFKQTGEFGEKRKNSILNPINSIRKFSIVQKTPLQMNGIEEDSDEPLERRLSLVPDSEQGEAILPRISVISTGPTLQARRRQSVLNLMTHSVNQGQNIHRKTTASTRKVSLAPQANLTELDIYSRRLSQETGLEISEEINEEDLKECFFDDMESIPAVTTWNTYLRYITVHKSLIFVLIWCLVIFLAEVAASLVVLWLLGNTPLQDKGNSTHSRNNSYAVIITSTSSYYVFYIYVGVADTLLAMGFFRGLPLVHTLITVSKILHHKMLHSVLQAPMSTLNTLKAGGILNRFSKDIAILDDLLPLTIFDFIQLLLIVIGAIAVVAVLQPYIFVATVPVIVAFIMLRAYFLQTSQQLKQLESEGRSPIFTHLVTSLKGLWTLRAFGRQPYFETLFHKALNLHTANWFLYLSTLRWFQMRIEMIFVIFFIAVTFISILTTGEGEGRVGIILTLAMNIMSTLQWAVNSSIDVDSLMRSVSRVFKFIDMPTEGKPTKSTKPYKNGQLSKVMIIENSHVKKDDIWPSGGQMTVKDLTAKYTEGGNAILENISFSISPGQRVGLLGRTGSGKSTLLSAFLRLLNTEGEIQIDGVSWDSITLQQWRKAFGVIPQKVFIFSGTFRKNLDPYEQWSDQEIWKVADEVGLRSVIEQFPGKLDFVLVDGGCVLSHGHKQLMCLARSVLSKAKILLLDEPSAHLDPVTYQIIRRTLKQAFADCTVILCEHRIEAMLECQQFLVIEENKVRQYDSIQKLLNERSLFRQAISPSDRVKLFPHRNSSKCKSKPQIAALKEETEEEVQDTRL
T2 sequence (P13569 with tags, fused parts or gaps DEL508-508): as above
T3 sequence (P13569 whole entry G551D): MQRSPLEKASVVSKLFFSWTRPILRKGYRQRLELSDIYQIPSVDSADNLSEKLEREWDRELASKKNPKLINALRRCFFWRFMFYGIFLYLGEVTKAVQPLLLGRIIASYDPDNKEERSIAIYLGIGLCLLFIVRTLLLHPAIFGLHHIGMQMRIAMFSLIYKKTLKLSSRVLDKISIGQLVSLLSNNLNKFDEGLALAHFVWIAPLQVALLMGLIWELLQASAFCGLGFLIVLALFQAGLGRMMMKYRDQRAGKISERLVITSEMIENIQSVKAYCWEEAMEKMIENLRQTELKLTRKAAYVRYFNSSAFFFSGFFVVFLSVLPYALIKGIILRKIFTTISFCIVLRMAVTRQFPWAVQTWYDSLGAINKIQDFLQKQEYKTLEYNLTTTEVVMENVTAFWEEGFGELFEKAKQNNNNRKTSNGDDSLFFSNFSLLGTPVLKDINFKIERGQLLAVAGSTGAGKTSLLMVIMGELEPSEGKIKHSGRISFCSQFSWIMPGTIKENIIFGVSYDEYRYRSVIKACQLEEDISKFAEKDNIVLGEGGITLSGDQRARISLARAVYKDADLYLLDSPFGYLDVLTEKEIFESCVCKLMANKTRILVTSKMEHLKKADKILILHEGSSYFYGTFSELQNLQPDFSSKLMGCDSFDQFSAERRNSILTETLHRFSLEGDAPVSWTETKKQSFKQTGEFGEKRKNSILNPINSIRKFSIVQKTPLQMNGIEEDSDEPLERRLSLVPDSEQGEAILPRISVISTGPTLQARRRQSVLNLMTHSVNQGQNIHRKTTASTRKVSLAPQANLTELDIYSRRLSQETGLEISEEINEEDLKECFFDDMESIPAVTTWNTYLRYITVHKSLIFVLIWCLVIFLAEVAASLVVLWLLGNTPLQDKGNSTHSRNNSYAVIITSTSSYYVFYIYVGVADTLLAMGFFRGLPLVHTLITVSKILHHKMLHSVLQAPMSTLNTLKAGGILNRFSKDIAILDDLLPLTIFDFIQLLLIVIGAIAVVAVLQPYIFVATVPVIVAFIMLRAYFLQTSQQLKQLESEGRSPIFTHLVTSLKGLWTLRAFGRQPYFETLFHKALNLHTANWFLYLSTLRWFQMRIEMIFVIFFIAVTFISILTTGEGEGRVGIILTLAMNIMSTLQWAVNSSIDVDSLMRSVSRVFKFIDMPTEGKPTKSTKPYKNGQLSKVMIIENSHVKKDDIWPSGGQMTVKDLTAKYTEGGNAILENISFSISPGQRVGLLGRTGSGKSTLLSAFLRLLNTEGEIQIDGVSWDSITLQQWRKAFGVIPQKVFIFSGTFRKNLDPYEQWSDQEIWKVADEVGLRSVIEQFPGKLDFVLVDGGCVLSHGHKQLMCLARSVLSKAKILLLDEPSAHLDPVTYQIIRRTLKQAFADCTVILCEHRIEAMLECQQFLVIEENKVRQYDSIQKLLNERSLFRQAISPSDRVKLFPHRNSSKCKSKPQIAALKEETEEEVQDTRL

What is called EC50 is the concentration needed to bring the measured effect to its halfway point. For `CN1CCc2c(sc(NC(=O)c3ccccc3O)c2C(N)=O)C1` [A, 2-(2-hydroxybenzamido)-6-methyl-4,5,6,7-tetrahydrothieno[2,3-c]pyridine-3-carboxamide, reference compound], the EC50 at CFTR ΔF508 mutant [1] (comparative compounds) and on CFTR G551D mutant (setting [3]) was > 10000 nM each time. Further, the ΔIsc is given as −0.3248 μA/cm^2 at CFTR ΔF508 (compound at 50 nM (Table XV)), −0.3807 μA/cm^2 at CFTR ΔF508 (compound at 50 nM (Table XVI)), −0.5401 μA/cm^2 on CFTR ΔF508 (compound at 100 nM (Table XVI)) and −0.6598 μA/cm^2 at CFTR ΔF508 (compound at 200 nM (Table XVI)). Moreover, the Current increase at CFTR ΔF508 is on record as −0.0559 μA/cm^2. In addition, the “activity on the CFTR protein in TECC assay (ΔISC vs DMSO baseline)” value (shortened to “activity … (ΔISC vs DMSO baseline)”) on CFTR ΔF508 is listed as “no such activity”.

Turning to `NC(=O)c1c(NC(=O)c2ccccc2Cl)sc2c1CCCC2` [B, 2-(2-chlorobenzamido)-4,5,6,7-tetrahydrobenzo[b]thiophene-3-carboxamide, reference compound], at CFTR ΔF508 mutant [1] (comparative compounds), the EC50 is < 370 nM. Also, the ΔIsc is reported as 0.1807 μA/cm^2 on CFTR ΔF508 (compound at 50 nM (Table XV)), 0.1807 μA/cm^2 at CFTR ΔF508 (compound at 50 nM (Table XVI)), 0.4762 μA/cm^2 on CFTR ΔF508 (compound at 100 nM (Table XVI)) and 0.8022 μA/cm^2 on CFTR ΔF508 (compound at 200 nM (Table XVI)). Moreover, the Current increase on CFTR ΔF508 worked out at 0.5055 μA/cm^2. The “activity … (ΔISC vs DMSO baseline)” value at CFTR ΔF508 is reported as “no such activity”.

Take `CC1(C)Cc2c(sc(NC(=O)C(C)(C)O)c2C(N)=O)C(C)(C)O1` [Compound 6, 2-(2-hydroxy-2-methylpropanamido)-5,5,7,7-tetramethyl-5,7-dihydro-4H-thieno[2,3-c]pyran-3-carboxamide]: the concentration for a half-maximal effect (EC50) at CFTR ΔF508 mutant [1] (setting [4]) was 75.8 nM; on CFTR ΔF508, 165 nM and 60.9 nM; on CFTR ΔF508 mutant [2], 16.2 nM.

For the molecule `CC1(C)Cc2c(sc(NC(=O)c3ccc(F)cc3O)c2C(N)=O)C(C)(C)O1` [Compound 21, 2-(4-fluoro-2-hydroxybenzamido)-5,5,7,7-tetramethyl-5,7-dihydro-4H-thieno[2,3-c]pyran-3-carboxamide], the EC50 on CFTR ΔF508 mutant [1] (setting [4]) turned out to be 6.46 nM; at CFTR ΔF508, 16.3 nM; on CFTR ΔF508 mutant [2] it was 0.71 nM; at CFTR G551D mutant (HEK293 cells expressing CFTR G551D and YFP reporter, forskolin 10.67 μM) it was 57.5 nM.

Regarding `NC(=O)c1c(NC(=O)c2cc[nH]n2)sc2c1CCOC2` [E, N-(3-carbamoyl-5,7-dihydro-4H-thieno[2,3-c]pyran-2-yl)-1H-pyrazole-3-carboxamide, reference compound], the values for the EC50 on CFTR ΔF508 mutant [1] (comparative compounds) and on CFTR G551D mutant (setting [3]) were 479 nM and 2900 nM, respectively. For the same molecule, the ΔIsc on CFTR ΔF508 (compound at 50 nM (Table XV)) was 0.1663 μA/cm^2; on CFTR ΔF508 (compound at 50 nM (Table XVI)), 0.1663 μA/cm^2; at CFTR ΔF508 (compound at 100 nM (Table XVI)), −0.0318 μA/cm^2; on CFTR ΔF508 (compound at 200 nM (Table XVI)) it was 0.5241 μA/cm^2. In addition, at CFTR ΔF508, the Current increase came out at 0.4911 μA/cm^2. The “activity … (ΔISC vs DMSO baseline)” value on CFTR ΔF508 is “no such activity”.
